The values below are quoted from earlier work in patent US8778914B2, “Bisphosphonate-prodrugs” (priority 2009, dated 2014).

Structures are written as SMILES. Numbered stars: 1 amine (or outer) side, 2 acyl side, 3 side chain; on linkers, the order of the positions; unused ones are H or OH. Square brackets hold non-standard residues; d marks the D form. Side chains are listed from the residue outwards. Peptide text beside a SMILES is read from it. * marks the point of attachment. DAMPA = CN(Cc1cnc2nc(N)nc(N)c2n1)c1ccc(C(=O)*)cc1; Hexanoyl(6-maleimido) = O=C1C=CC(=O)N1CCCCCC(=O)*; γGlu = O=C(O)[C@H](CCC(=O)[*:2])N[*:1]

For one data set, the target named is plasmin (Homo sapiens, UniProt P00747). The note with it: releases (gamma-MTX); reported in A. Warnecke et al., Arch. Pharm. 2007.
A further data set concerns the target Cathepsin B (Homo sapiens, UniProt P07858). The note with it: releases (gamma-MTX); reported in A. Warnecke et al., Arch. Pharm. 2007.
For data set [1] the following is noted: pH 5.0; F. Kratz et al., J. Med. Chem. 2002.

Sequence of plasmin (P00747 581-810 limits assumed, species assumed): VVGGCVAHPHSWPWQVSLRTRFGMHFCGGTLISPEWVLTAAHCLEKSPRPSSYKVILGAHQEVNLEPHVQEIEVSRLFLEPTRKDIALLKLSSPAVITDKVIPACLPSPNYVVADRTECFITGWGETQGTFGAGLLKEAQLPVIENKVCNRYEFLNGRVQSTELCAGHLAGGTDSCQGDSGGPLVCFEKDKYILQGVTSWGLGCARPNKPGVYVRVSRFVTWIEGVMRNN
Sequence of plasmin (P00747 97-580 partner limits assumed, species assumed): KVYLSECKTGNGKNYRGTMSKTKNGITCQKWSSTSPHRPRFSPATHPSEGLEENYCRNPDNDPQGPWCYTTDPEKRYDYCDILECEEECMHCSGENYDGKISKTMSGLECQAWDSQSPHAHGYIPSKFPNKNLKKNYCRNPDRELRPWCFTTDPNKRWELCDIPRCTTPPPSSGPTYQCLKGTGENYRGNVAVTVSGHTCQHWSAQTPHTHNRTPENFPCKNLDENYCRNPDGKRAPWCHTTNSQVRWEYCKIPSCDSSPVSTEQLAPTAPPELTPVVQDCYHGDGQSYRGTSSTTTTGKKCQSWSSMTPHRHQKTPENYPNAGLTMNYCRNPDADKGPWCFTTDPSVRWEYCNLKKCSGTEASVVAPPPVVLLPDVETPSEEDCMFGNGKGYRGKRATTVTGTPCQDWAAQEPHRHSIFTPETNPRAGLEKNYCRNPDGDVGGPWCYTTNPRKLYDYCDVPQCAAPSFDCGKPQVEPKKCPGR

`C[C@@H](NC(=O)CCCCCN1C(=O)C=CC1=O)C(=O)N[C@@H](Cc1ccccc1)C(=O)N[C@@H](CCCCN)C(=O)N[C@@H](CCCCNC(=O)CC[C@H](NC(=O)c1ccc(N(C)Cc2cnc3nc(N)nc(N)c3n2)cc1)C(=O)O)C(=O)O` [EMC-D-Ala-Phe-Lys-Lys-(gamma-MTX)-OH] ({Hexanoyl(6-maleimido)}-[dA]FKK([γGlu-DAMPA])-OH): the cleavage by plasmin result at plasmin is given as “cleaved between Lys-Lys”. Also, the “cleavage by Cathepsin B” value on Cathepsin B is recorded as “cleaved between Lys-Lys”.

As to `COc1cccc2c1C(=O)c1c(O)c3c(c(O)c1C2=O)C[C@@](O)(/C(CO)=N/NC(=O)CCCCCN1C(=O)C=CC1=O)C[C@@H]3O[C@H]1C[C@H](N)[C@H](O)[C@H](C)O1` [DOXO-EMCH, 6-maleimidocaproylhydazone derivative of doxorubicin], the “acid-sensitive cleavage, release of doxorubicin” value in data set [1] is given as “cleavable”.
